Usually IC50 stands for the concentration at which inhibition is half-maximal. Read a high IC50 as weaker potency.

The test addresses T1, HSL (Rattus norvegicus, UniProt P15304).
T1 construct: The partially purified HSL can be stored at −70° C. for 4 to 6 weeks; from tissue; host or cells: rat epididymal fat cells (male Wistar rats)
T1 sequence (P15304 1-768 isoform P15304-2): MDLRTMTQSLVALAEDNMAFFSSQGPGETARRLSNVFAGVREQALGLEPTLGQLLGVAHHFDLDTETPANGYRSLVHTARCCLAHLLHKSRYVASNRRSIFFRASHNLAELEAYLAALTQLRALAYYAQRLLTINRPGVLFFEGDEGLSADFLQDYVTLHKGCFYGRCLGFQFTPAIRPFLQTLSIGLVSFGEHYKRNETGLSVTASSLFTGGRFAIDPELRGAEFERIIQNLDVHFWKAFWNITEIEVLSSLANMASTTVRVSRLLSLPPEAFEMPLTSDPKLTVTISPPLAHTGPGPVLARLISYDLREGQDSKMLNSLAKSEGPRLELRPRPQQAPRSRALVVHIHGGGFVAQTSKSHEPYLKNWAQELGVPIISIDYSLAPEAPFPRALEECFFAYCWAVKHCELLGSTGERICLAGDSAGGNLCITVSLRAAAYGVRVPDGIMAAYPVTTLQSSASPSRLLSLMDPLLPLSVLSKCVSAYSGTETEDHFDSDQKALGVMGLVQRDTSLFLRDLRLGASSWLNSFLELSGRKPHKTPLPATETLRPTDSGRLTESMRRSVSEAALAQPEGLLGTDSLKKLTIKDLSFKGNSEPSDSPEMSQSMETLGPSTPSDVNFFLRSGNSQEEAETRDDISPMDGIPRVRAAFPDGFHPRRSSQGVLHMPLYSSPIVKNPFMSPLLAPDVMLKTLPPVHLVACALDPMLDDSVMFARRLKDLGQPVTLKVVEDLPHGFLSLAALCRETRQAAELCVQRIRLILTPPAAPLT
Put plainly: Indirect NAG assay (extinction increase at 481 nm). Format: biochemical. As for the experimental part:
A typical reaction is carried out at 30° C. for 60 min, for example in 1.5 ml Eppendorf vessels or 96-hole plates. […] 180 μl of the substrate solution (20 μg/ml of phosphatidylcholine, 10 μg/ml of phosphatidylinositol, 50 μg/ml of NAG in assay buffer) are added. After a preincubation for 15 min at 30° C., 20 μl of HSL in assay buffer are pipetted in and the extinction is immediately measured (see above) at 481 nm in a cuvette photometer (0.5 ml cuvette) or microtiter plate reader. After a certain incubation time, which is variable and depends on the chosen enzyme concentration and can be between 2 and 240 minutes, in this case incubation at 30° C. for 60 min, the extinction is measured again. The increase in the extinction in the yellow region, in this case at 481 nm, is a measure of the enzyme activity.
Isolated rat fat cells are obtained from epididymal fatty tissue from untreated male rats (Wistar, 220-250 g) by collagenase treatment according to published processes. The fat cells from 10 rats are washed three times by flotation with 50 ml each of homogenization buffer ([…], pH 7.4, 0.25 M sucrose, 1 mM ethylenediamine-N,N,N′,N′-tetraacetic acid (EDTA), 1 mM dithiothreitol (DTT), 10 μg/ml of leupeptin, 10 μg/ml of antipain, 20 μg/ml of pepstatin) and finally taken up in 10 ml of homogenization buffer. The fat cells are homogenized in a Teflon-in-glass homogenizer (Braun-Melsungen) by 10 strokes at 1500 rpm and 15° C. The homogenizate is centrifuged (Sorvall SM24 tubes, 5000 rpm, 10 min, 4° C.). The […] between the overlying fatty layer and the pellet is removed and the centrifugation is repeated. The […] resulting from this is centrifuged again (Sorvall SM24 tubes, 20,000 rpm, 45 min, 4° C.). […] After incubation for 60 min at 4° C. (shake at intervals of 15 min), the batch is centrifuged (Sorvall SM24 tubes, 3000 rpm, 10 min, 4° C.). The supernatant is brought to pH 5.2 by addition of glacial acetic acid and incubated at 4° C. for 30 min. […] The suspension is dialyzed overnight at 4° C. against 25 mM TRIS/HCl, pH 7.4, 50% glycerol, 1 mM DTT, and 10 μg/ml of leupeptin, pepstatin, and antipain and then applied to a hydroxylapatite column (0.1 g per 1 ml of suspension, equilibrated with 10 mM potassium phosphate, pH 7.0, 30% glycerol, 1 mM DTT). The column is washed with four volumes of equilibration buffer at a flow rate of 20 to 30 ml/h. The HSL is eluted with a volume of equilibration buffer which contains 0.5 M potassium phosphate, then dialyzed (see above) and concentrated 5 to 10 times by ultrafiltration (Amicon Diaflo PM 10 filter) at 4° C. The partially purified HSL can be stored at −70° C. for 4 to 6 weeks.
6 mg of phosphatidylcholine and 6 mg of phosphatidylinositol are dissolved in 1 ml of chloroform each. 10 mg of NAG are dissolved in 1 ml of chloroform. […] The chloroform (225 μl total volume) is completely removed by overblowing with a stream of N2. The dried substrate can be stored at 4° C. for up to three days. For the preparation of the phospholipid vesicles/micelles having intercalated NAG (on the test day), the dried substrate is taken up in 20 ml of assay buffer (25 mM TRIS/HCl, pH 7.4; 150 mM NaCl) and two ultrasonic treatments with an ultrasonic probe (Branson Sonifier type 11, standard microtip): 1st treatment setting 2, 2×1 min, in between in each case 1 min on ice; 2nd treatment setting 4, 2×1 min, in between in each case 1 min on ice. […] Before use as a substrate (within the next 2 h), the solution is additionally incubated on ice for 15 min.
The assay is carried out at 30° C. for 60 min in 1.5 ml Eppendorf vessels or 96-hole plates.

Several values for one entry are separate records, joined by “and”; a condition that tells them apart may be missing. Identical values can stand only once.

Turning to `O=C(CCCCCCCCCCCNc1ccc([N+](=O)[O-])c2nonc12)OCC(O)CO` (racemic) [Compound 3], the IC50 is 1.52 µM and 2.14 µM.
